Experimental findings from patent US9073918B2, “Pyrazolo[4,3-b]pyridine-7-amine inhibitors of ALK5” (Takeda Pharmaceutical Company Limited, priority 2010, dated 2015) are described below.

Where only a bound is given, the exact number is not on record here.

Assay [1] concerns the target T1, TGF-β R1 ALK5 (Homo sapiens, UniProt P36897).
T1 construct: purchased Invitrogen PV5837
T1 sequence (P36897 34-503): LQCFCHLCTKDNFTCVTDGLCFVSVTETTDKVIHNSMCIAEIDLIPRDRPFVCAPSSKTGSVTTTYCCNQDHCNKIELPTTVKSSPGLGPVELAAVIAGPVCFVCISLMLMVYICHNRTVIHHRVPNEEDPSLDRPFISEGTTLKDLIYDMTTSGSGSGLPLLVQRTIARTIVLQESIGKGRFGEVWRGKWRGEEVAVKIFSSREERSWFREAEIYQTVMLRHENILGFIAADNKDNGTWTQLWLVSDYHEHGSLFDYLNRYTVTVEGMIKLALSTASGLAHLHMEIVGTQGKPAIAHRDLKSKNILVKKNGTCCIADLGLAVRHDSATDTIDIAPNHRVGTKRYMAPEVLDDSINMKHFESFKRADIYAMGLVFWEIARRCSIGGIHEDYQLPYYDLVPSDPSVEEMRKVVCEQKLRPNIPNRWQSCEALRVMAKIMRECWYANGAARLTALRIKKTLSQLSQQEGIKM
Description: In vitro inhibition of ALK5 (LanthaScreen activity assay, TR-FRET). Format: biochemical.

Assay [2] addresses T2, cellular TGF-β R1 ALK5 (Homo sapiens, UniProt P36897).
T2 construct: host or cells: CellSensor SBE-bla HEK 293T
T2 sequence (P36897 34-503): T1 sequence (P36897 34-503)
Description: Cellular inhibition of ALK5 (CellSensor SBE-bla HEK 293T beta-lactamase reporter). The conditions noted are these: cellular inhibition of ALK5, SBE-bla HEK 293T cells, TGFb-1 stimulated 5 hours; average where measured in multiple experiments. The assay is classed as cell-based. An excerpt: Test compounds were screened for cellular TGF-β R1 ALK5 inhibition by use of a CellSensor® SBE-bla HEK 293T (K1550, Invitrogen Corp. Madison, Wis.) cell line. The CellSensor® SBE-bla HEK 293T cell line contains a beta-lactamase reporter gene under control of the SBE response element stably integrated into HEK 293T cells. The SBE response element is a DNA region that binds activated SMADs which results from the binding of TGF-β to, and subsequent activation of ALK5.
The assay procedure was as follows:
CellSensor® SBE-bla HEK 293T cell line were plated at 12,000 cells/well in 40 ul DMEM plus 5 ug/ml blasticidin into 384-well, black-wall, clear-bottom assay plate and incubated overnight.
The following day 5 uL of 10×, 2.5-fold serially diluted test compounds in DMSO were added into cells to a final compound concentration of 1× and DMSO concentration of 0.5%. Assay was incubated for 1 hour at 37° C., 5% CO2, 5 uL of 100 ng/mL TGFb-1 was then added to activate ALK5 and incubated for 5 hours at 37° C., 5% CO2, 10 uL of detector, LiveBLAzer FRET B/G substrate (CCF4-AM, Invitrogen Corp. Madison, Wis.) was added to cells and incubated for 2 hours at RT. Assay was measured using Spectramax, a bottom-read fluorescence plate reader, at excitation setting of 405 nm and emission settings of 460 nm and 530 nm.
Response is defined as the ratio of background corrected 460 nm emission values/background corrected 530 nm emission values. Cellular activity was defined as percent inhibition of uninhibited ALK5 activity (wells treated with DMSO+TGF-β). The percent inhibition of cellular ALK5 at a given compound concentration is defined as: 100%×[1−(response compound+TGF-β/response DMSO+TGF-β)] where response compound+TGF-β is defined as the activity in the presence of test compound and response DMSO+TGF-β is defined as the uninhibited cellular ALK5 activity. The pIC50 value (negative log of the molar concentration of the compound that produces 50% inhibition) of a test compound is calculated by non-linear least squares curve fitting. pIC50 values, the negative of the log of the IC50, are calculated by non-linear curve fitting of the compound concentrations and percent of inhibition to the standard pIC50 equation.
Where inhibition was measured in multiple experiments the value in Table 2 is an average. N.T. means not tested.

The IC50 is the concentration that inhibits the measured activity by half. For `Cc1cnc(-c2cc(F)ccc2F)cc1Nc1ccnc2cn[nH]c12` [Example 108, N-(2-(2,5-difluorophenyl)-5-methylpyridin-4-yl)-1H-pyrazolo[4,3-b]pyridin-7-amine], the IC50 in assay [1] is 1 nM; in assay [2] it was 7.94 nM.

Regarding `Cc1ccc(F)c(-c2cc(Nc3ccnc4cnn(CCF)c34)c(C)cn2)n1` [Example 130, N-(3′-fluoro-5,6′-dimethyl-2,2′-bipyridin-4-yl)-1-(2-fluoroethyl)-1H-pyrazolo[4,3-b]pyridin-7-amine], the results for the IC50 in assay [1] and in assay [2] were 3.98 nM and 20 nM, respectively.

`CC(C)n1ncc2nccc(Nc3ccnc(-c4cc(Cl)ccc4F)c3)c21` [Example 20, N-(2-(5-chloro-2-fluorophenyl)pyridin-4-yl)-1-isopropyl-1H-pyrazolo[4,3-b]pyridin-7-amine]: the IC50 in assay [1] was 39.8 nM; in assay [2] it was 100 nM.

Consider `Cc1cnc(-c2cc(Cl)ccc2F)cc1Nc1ccnc2cn(C)nc12` [Example 128, N-(2-(5-chloro-2-fluorophenyl)-5-methylpyridin-4-yl)-2-methyl-2H-pyrazolo[4,3-b]pyridin-7-amine], for which the figures for the IC50 in assay [1] and in assay [2] were 6.31 nM and 25.1 nM, respectively.

As to `Cc1cnc(-c2cc(Cl)ccc2F)cc1Nc1ccnc2cn[nH]c12` [Example 49, N-(2-(5-chloro-2-fluorophenyl)-5-methylpyridin-4-yl)-1H-pyrazolo[4,3-b]pyridin-7-amine], the IC50 in assay [1] and in assay [2] was 31.6 nM throughout.

Turning to `Cc1ccc(F)c(-c2cc(Nc3ccnc4cnn(C(C)C)c34)c(C)cn2)n1` [Example 5, N-(3′-fluoro-5,6′-dimethyl-2,2′-bipyridin-4-yl)-1-isopropyl-1H-pyrazolo[4,3-b]pyridin-7-amine], the results for the IC50 in assay [1] and in assay [2] were 39.8 nM and 200 nM, respectively.

Turning to `CNC(=O)Cn1ncc2nccc(Nc3cc(-c4nc(C)ccc4F)ncc3C)c21` [Example 145, 2-(7-(3′-fluoro-5,6′-dimethyl-2,2′-bipyridin-4-ylamino)-1H-pyrazolo[4,3-b]pyridin-1-yl)-N-methylacetamide], the IC50 in assay [1] was 15.8 nM; in assay [2] it was 126 nM.

On to `Cc1ccc(F)c(-c2cc(Nc3ccnc4cn(CCF)nc34)c(C)cn2)n1` [Example 129, N-(3′-fluoro-5,6′-dimethyl-2,2′-bipyridin-4-yl)-2-(2-fluoroethyl)-2H-pyrazolo[4,3-b]pyridin-7-amine], for which the IC50 in assay [1] is 6.31 nM; in assay [2], 15.8 nM.

As to `COCCn1ncc2nccc(Nc3ccnc(-c4nc(C)ccc4F)c3)c21` [Example 73, N-(3′-fluoro-6′-methyl-2,2′-bipyridin-4-yl)-1-(2-methoxyethyl)-1H-pyrazolo[4,3-b]pyridin-7-amine], the IC50 in assay [1] was 15.8 nM; in assay [2] it was 63.1 nM.

For `Fc1ccc(Cl)cc1-c1cc(Nc2ccnc3cn(CC4CCNCC4)nc23)ccn1` [Example 27, N-(2-(5-chloro-2-fluorophenyl)pyridin-4-yl)-2-(piperidin-4-ylmethyl)-2H-pyrazolo[4,3-b]pyridin-7-amine], the IC50 in assay [1] was 63.1 nM; in assay [2], 1000 nM.

As for `CNC(=O)Cn1cc2nccc(Nc3ccnc(-c4nc(C)ccc4F)c3)c2n1` [Example 111, 2-(7-(3′-fluoro-6′-methyl-2,2′-bipyridin-4-ylamino)-2H-pyrazolo[4,3-b]pyridin-2-yl)-N-methylacetamide], the IC50 in assay [1] was 501 nM; in assay [2], 12600 nM.

For the molecule `Cc1nc(-c2cc(F)ccc2F)cc(Nc2ccnc3c[nH]nc23)c1C` [Example 95, N-(6-(2,5-difluorophenyl)-2,3-dimethylpyridin-4-yl)-2H-pyrazolo[4,3-b]pyridin-7-amine], the values for the IC50 in assay [1] and in assay [2] were 20 nM and 158 nM, respectively.

In the case of `Cc1ccc(F)c(-c2cc(Nc3ccnc4cn(C[C@@H](C)O)nc34)ccn2)n1` [Example 114, (R)-1-(7-(3′-fluoro-6′-methyl-2,2′-bipyridin-4-ylamino)-2H-pyrazolo[4,3-b]pyridin-2-yl)propan-2-ol], the figures for the IC50 in assay [1] and in assay [2] were 158 nM and 1260 nM, respectively.

As to `CCNC(=O)Cn1cc2nccc(Nc3cc(-c4nc(C)ccc4F)ncc3C)c2n1` [Example 154, N-ethyl-2-(7-(3′-fluoro-5,6′-dimethyl-2,2′-bipyridin-4-ylamino)-2H-pyrazolo[4,3-b]pyridin-2-yl)acetamide], the concentration for half-maximal inhibition (IC50) in assay [1] is 31.6 nM; in assay [2], 1580 nM.

On to `CNC(=O)Cn1cc2ncc(F)c(Nc3cc(-c4nc(C)ccc4F)ncc3C)c2n1` [Example 147, 2-(6-fluoro-7-(3′-fluoro-5,6′-dimethyl-2,2′-bipyridin-4-ylamino)-2H-pyrazolo[4,3-b]pyridin-2-yl)-N-methylacetamide], for which the IC50 in assay [1] was 31.6 nM; in assay [2], 200 nM.

As for `Cc1ccc(F)c(-c2cc(Nc3ccnc4cnn(C)c34)c(C)cn2)n1` [Example 124, N-(3′-fluoro-5,6′-dimethyl-2,2′-bipyridin-4-yl)-1-methyl-1H-pyrazolo[4,3-b]pyridin-7-amine], the IC50 in assay [1] was 3.98 nM; in assay [2] it was 6.31 nM.

With `CCNC(=O)n1ncc2nccc(Nc3nc(-c4cc(F)ccc4F)nc(C)c3C)c21` [Example 92, 7-(2-(2,5-difluorophenyl)-5,6-dimethylpyrimidin-4-ylamino)-N-ethyl-1H-pyrazolo[4,3-b]pyridine-1-carboxamide], the IC50 was 79.4 nM in assay [1] and 501 nM in assay [2].

With `Cc1cnc(-c2cc(F)ccc2F)cc1Nc1ccnc2cnn(C(=O)NC(C)C)c12` [Example 110, 7-(2-(2,5-difluorophenyl)-5-methylpyridin-4-ylamino)-N-isopropyl-1H-pyrazolo[4,3-b]pyridine-1-carboxamide], the IC50 in assay [1] is 5.01 nM; in assay [2], 158 nM.

Regarding `CNC(=O)n1ncc2nccc(Nc3ccnc(-c4cc(F)ccc4F)c3)c21` [Example 94, 7-(2-(2,5-difluorophenyl)pyridin-4-ylamino)-N-methyl-1H-pyrazolo[4,3-b]pyridine-1-carboxamide], the IC50 was 2 nM in assay [1] and 20 nM in assay [2].

As for `Fc1ccc(Cl)cc1-c1cc(Nc2ccnc3cnn(C4CCOCC4)c23)ccn1` [Example 21, N-(2-(5-chloro-2-fluorophenyl)pyridin-4-yl)-1-(tetrahydro-2H-pyran-4-yl)-1H-pyrazolo[4,3-b]pyridin-7-amine], the IC50 in assay [1] is 100 nM; in assay [2], 794 nM.

Regarding `Cc1ccc(F)c(-c2cc(Nc3ccnc4cnn(CC5CC5)c34)ccn2)n1` [Example 89, 1-(cyclopropylmethyl)-N-(3′-fluoro-6′-methyl-2,2′-bipyridin-4-yl)-1H-pyrazolo[4,3-b]pyridin-7-amine], the IC50 was 25.1 nM in assay [1] and 200 nM in assay [2].

As for `Cc1ccc(F)c(-c2cc(Nc3ccnc4cnn(C5CC5)c34)ccn2)n1` [Example 133, 1-cyclopropyl-N-(3′-fluoro-6′-methyl-2,2′-bipyridin-4-yl)-1H-pyrazolo[4,3-b]pyridin-7-amine], the IC50 was 5.01 nM in assay [1] and 31.6 nM in assay [2].

As for `Cc1ccc(F)c(-c2cc(Nc3c(F)cnc4cn(C)nc34)c(C)cn2)n1` [Example 131, 6-fluoro-N-(3′-fluoro-5,6′-dimethyl-2,2′-bipyridin-4-yl)-2-methyl-2H-pyrazolo[4,3-b]pyridin-7-amine], the IC50 is 3.16 nM in assay [1] and 10 nM in assay [2].

For the molecule `CCNC(=O)n1ncc2nccc(Nc3cc(-c4nc(C)ccc4F)ncc3C)c21` [Example 115, N-ethyl-7-(3′-fluoro-5,6′-dimethyl-2,2′-bipyridin-4-ylamino)-1H-pyrazolo[4,3-b]pyridine-1-carboxamide], the IC50 in assay [1] is less than 1 nM; in assay [2], 6.31 nM.
